In patent publication US20130281399A1, “TREATMENT OF DISEASES BY EPIGENETIC REGULATION” (RVX Therapeutics Inc., priority 2012, published 2013):

These compounds were tested against T1, Brd4 bromodomain 1 (Homo sapiens, UniProt O60885) (assay: Inhibition of binding of tetra-acetylated histone H4 to Brd4 bromodomain 1 (TR-FRET)). Details: His-tagged Brd4 bromodomain 1 200 nM, tetra-acetylated histone H4 peptide 25-50 nM, 2 hours room temperature.
T1 construct: made in house; host or cells: E. coli BL21(DE3)
Method: Proteins were cloned and overexpressed with a N-terminal 6×His tag, then purified by nickel affinity followed by size exclusion chromatography. Briefly, E. coli BL21(DE3) cells were transformed with a recombinant expression vector encoding N-terminally Nickel affinity tagged bromodomains from Brd2, Brd3, Brd4. Cell cultures were incubated at 37° C. with shaking to the appropriate density and induced overnight with IPTG. The supernatant of lysed cells was loaded onto Ni-IDA column for purification. Eluted protein was pooled, concentrated and further purified by size exclusion chromatography. Fractions representing monomeric protein were pooled, concentrated, aliquoted, and frozen at −80° C. for use in subsequent experiments.
For inhibition assays, serially diluted test compound was added to these reactions in a 0.2% final concentration of DMSO. Final buffer concentrations were 30 mM HEPES pH 7.4, 30 mM NaCl, 0.3 mM CHAPS, 20 mM phosphate pH 7.0, 320 mM KF, 0.08% BSA). […] The binding inhibitory activity was shown by a decrease in 665 nm fluorescence relative to 620 nm. IC50 values were determined from a dose response curve.
In the case of `COc1cc(OC)c2c(=O)[nH]c(-c3ccc(N4CCN(CCO)CC4)cc3)nc2c1` [Example 1, 2-(4-(4-(2-hydroxyethyl)piperazin-1-yl)phenyl)-5,7-dimethoxyquinazolin-4(3H)-one], the “FRET activity (<50 uM)” value is reported as “Active”. With `CCCCN1CCN(c2ccc(-c3nc4cc(OC)cc(OC)c4c(=O)[nH]3)cc2)CC1` [Example 2, 2-(4-(4-butylpiperazin-1-yl)phenyl)-5,7-dimethoxyquinazolin-4(3H)-one] the “FRET activity (<50 uM)” value was “Active”. `COc1cc(OC)c2c(=O)[nH]c(-c3ccc(C4CCN(C(C)=O)CC4)cc3)nc2c1` [Example 3, 2-(4-(1-acetylpiperidin-4-yl)phenyl)-5,7-dimethoxyquinazolin-4(3H)-one] was tested, and the “FRET activity (<50 uM)” value was “Active”. For `COc1cc(OC)c2c(=O)[nH]c(-c3ccc(N4CCC(NCC5CC5)C4)cc3)nc2c1` (stereo not drawn) [Example 4, 2-(4-(3-(cyclopropylmethylamino)pyrrolidin-1-yl)phenyl)-5,7-dimethoxyquinazolin-4(3H)-one], the “FRET activity (<50 uM)” value was “Active”. With `COc1cc(OC)c2c(=O)[nH]c(-c3cc(C)c(OCCC4CN(C(C)=O)C4)c(C)c3)nc2c1` [Example 5, 2-(4-(2-(1-acetylazetidin-3-yl)ethoxy)-3,5-dimethylphenyl)-5,7-dimethoxyquinazolin-4(3H)-one] the “FRET activity (<50 uM)” value was “Active”. In the case of `COc1cc(OCCOC(C)C)c2c(=O)[nH]c(-c3cc(C)nc(C)c3)nc2c1` [Example 6, 2-(2,6-dimethylpyridin-4-yl)-5-(2-isopropoxyethoxy)-7-methoxyquinazolin-4(3H)-one], the “FRET activity (<50 uM)” value is reported as “Active”. For `COc1cc(OC)c2c(=O)[nH]c(-c3ccc(N4C[C@@H](C)N(C(C)=O)[C@@H](C)C4)cc3)nc2n1` [Example 7, 2-(4-((3R,5S)-4-Acetyl-3,5-dimethylpiperazin-1-yl)phenyl)-5,7-dimethoxypyrido[2,3-d]pyrimidin-4(3H)-one], the “FRET activity (<50 uM)” value was “Active”. `COc1cc(OC)c2c(=O)[nH]c(-c3ccc(N4CCN(C(C)=O)CC4)cc3)nc2c1` [Example 11, 2-(4-(4-Acetylpiperazin-1-yl)phenyl)-5,7-dimethoxyquinazolin-4(3H)-one] was tested, and the “FRET activity (<50 uM)” value was “Active”. For `COc1cc(OC)c2c(=O)[nH]c(-c3ccc(N4CCNCC4)cc3)nc2c1` [Example 12, 5,7-Dimethoxy-2-(4-(piperazin-1-yl)phenyl)quinazolin-4(3H)-one], the “FRET activity (<50 uM)” value was “Active”. In the case of `COc1cc(OC)c2c(=O)[nH]c(-c3ccc(N4CCC(NC(C)=O)CC4)cc3)nc2c1` [Example 13, N-(1-(4-(5,7-Dimethoxy-4-oxo-3,4-dihydroquinazolin-2-yl)phenyl)piperidin-4-yl)acetamide], the “FRET activity (<50 uM)” value is reported as “Active”. For `COc1cc(OC)c2c(=O)[nH]c(-c3ccc(N4CCC(NS(C)(=O)=O)CC4)cc3)nc2c1` [Example 14, N-(1-(4-(5,7-Dimethoxy-4-oxo-3,4-dihydroquinazolin-2-yl)phenyl)piperidin-4-yl)methanesulfonamide], the “FRET activity (<50 uM)” value was “Active”. `COc1cc(OC)c2c(=O)[nH]c(-c3ccc(N4CCC(NC(=O)N(C)C)CC4)cc3)nc2c1` [Example 15, 3-(1-(4-(5,7-Dimethoxy-4-oxo-3,4-dihydroquinazolin-2-yl)phenyl)piperidin-4-yl)-1,1-dimethylurea] was tested, and the “FRET activity (<50 uM)” value was “Active”. With `CCCCCC(=O)N1CCN(c2ccc(-c3nc4cc(OC)cc(OC)c4c(=O)[nH]3)cc2)CC1` [Example 16, 2-(4-(4-Hexanoylpiperazin-1-yl)phenyl)-5,7-dimethoxyquinazolin-4(3H)-one] the “FRET activity (<50 uM)” value was “Inactive”. `COc1cc(OC)c2c(=O)[nH]c(-c3ccc(N4CCN(C(=O)C(C)C)CC4)cc3)nc2c1` [Example 17, 2-(4-(4-Isobutyrylpiperazin-1-yl)phenyl)-5,7-dimethoxyquinazolin-4(3H)-one] was tested, and the “FRET activity (<50 uM)” value was “Active”. For `COc1cc(OC)c2c(=O)[nH]c(-c3ccc(N4CCN(C(=O)c5ccccc5)CC4)cc3)nc2c1` [Example 18, 2-(4-(4-Benzoylpiperazin-1-yl)phenyl)-5,7-dimethoxyquinazolin-4(3H)-one], the “FRET activity (<50 uM)” value was “Inactive”. For `COc1cc(OC)c2c(=O)[nH]c(-c3ccc(N4CCN(C(=O)c5ccc(F)cc5)CC4)cc3)nc2c1` [Example 19, 2-(4-(4-(4-Fluorobenzoyl)piperazin-1-yl)phenyl)-5,7-dimethoxyquinazolin-4(3H)-one], the “FRET activity (<50 uM)” value was “Inactive”. In the case of `COc1cc(OC)c2c(=O)[nH]c(-c3ccc(N4CCC(NC(=O)c5ccccc5)CC4)cc3)nc2c1` [Example 20, N-(1-(4-(5,7-Dimethoxy-4-oxo-3,4-dihydroquinazolin-2-yl)phenyl)piperidin-4-yl)benzamide], the “FRET activity (<50 uM)” value is reported as “Inactive”. In the case of `COc1cc(OC)c2c(=O)[nH]c(-c3ccc(N4CCN(C(=O)c5ccccn5)CC4)cc3)nc2c1` [Example 21, 5,7-Dimethoxy-2-(4-(4-picolinoylpiperazin-1-yl)phenyl)quinazolin-4(3H)-one], the “FRET activity (<50 uM)” value is reported as “Active”. With `COc1cc(OC)c2c(=O)[nH]c(-c3ccc(N4CCN(C(=O)c5cccnc5)CC4)cc3)nc2c1` [Example 22, 5,7-Dimethoxy-2-(4-(4-nicotinoylpiperazin-1-yl)phenyl)quinazolin-4(3H)-one] the “FRET activity (<50 uM)” value was “Active”. For `COc1cc(OC)c2c(=O)[nH]c(-c3ccc(N4CCN(C(=O)c5ccncc5)CC4)cc3)nc2c1` [Example 23, 2-(4-(4-Isonicotinoylpiperazin-1-yl)phenyl)-5,7-dimethoxyquinazolin-4(3H)-one], the “FRET activity (<50 uM)” value was “Active”. With `COc1cc(OC)c2c(=O)[nH]c(-c3ccc(N4CCN(C(=O)c5cccs5)CC4)cc3)nc2c1` [Example 24, 5,7-Dimethoxy-2-(4-(4-(thiophene-2-carbonyl)piperazin-1-yl)phenyl)quinazolin-4(3H)-one] the “FRET activity (<50 uM)” value was “Active”. With `COc1cc(OC)c2c(=O)[nH]c(-c3ccc(N4CCN(C(=O)c5cnn(C)c5Cl)CC4)cc3)nc2c1` [Example 25, 2-(4-(4-(5-Chloro-1-methyl-1H-pyrazole-4-carbonyl)piperazin-1-yl)phenyl)-5,7-dimethoxyquinazolin-4(3H)-one] the “FRET activity (<50 uM)” value was “Inactive”. In the case of `COc1cc(OC)c2c(=O)[nH]c(-c3ccc(N4CCN(C(=O)CC(F)(F)F)CC4)cc3)nc2c1` [Example 26, 5,7-Dimethoxy-2-(4-(4-(3,3,3-trifluoropropanoyl)piperazin-1-yl)phenyl)quinazolin-4(3H)-one], the “FRET activity (<50 uM)” value is reported as “Active”. With `COc1cc(OC)c2c(=O)[nH]c(-c3ccc(N4CCN(C(=O)c5cc(Cl)sc5Cl)CC4)cc3)nc2c1` [Example 27, 2-(4-(4-(2,5-Dichlorothiophene-3-carbonyl)piperazin-1-yl)phenyl)-5,7-dimethoxyquinazolin-4(3H)-one] the “FRET activity (<50 uM)” value was “Active”. In the case of `COc1cc(OC)c2c(=O)[nH]c(-c3ccc(N4CCN(C(=O)C5CC5)CC4)cc3)nc2c1` [Example 28, 2-(4-(4-(Cyclopropanecarbonyl)piperazin-1-yl)phenyl)-5,7-dimethoxyquinazolin-4(3H)-one], the “FRET activity (<50 uM)” value is reported as “Active”. With `COc1cc(OC)c2c(=O)[nH]c(-c3ccc(N4CCN(Cc5ccc(F)cc5)CC4)cc3)nc2c1` [Example 29, 2-(4-(4-(4-Fluorobenzyl)piperazin-1-yl)phenyl)-5,7-dimethoxyquinazolin-4(3H)-one] the “FRET activity (<50 uM)” value was “Inactive”. `COc1cc(OC)c2c(=O)[nH]c(-c3ccc(N4CCN(Cc5ccccc5)CC4)cc3)nc2c1` [Example 30, 2-(4-(4-Benzylpiperazin-1-yl)phenyl)-5,7-dimethoxyquinazolin-4(3H)-one] was tested, and the “FRET activity (<50 uM)” value was “Inactive”. For `O=c1[nH]c(-c2ccc(N3CCN(CC(F)(F)F)CC3)cc2)nc2ccccc12` [Example 31, 2-(4-(4-(2,2,2-Trifluoroethyl)piperazin-1-yl)phenyl)quinazolin-4(3H)-one], the “FRET activity (<50 uM)” value was “Inactive”. For `COc1cc(OC)c2c(=O)[nH]c(-c3ccc(N4CCCN(C(C)=O)CC4)cc3)nc2c1` [Example 32, 2-(4-(4-Acetyl-1,4-diazepan-1-yl)phenyl)-5,7-dimethoxyquinazolin-4(3H)-one], the “FRET activity (<50 uM)” value was “Active”. For `COc1cc(OC)c2c(=O)[nH]c(-c3ccc(N4CCCNCC4)cc3)nc2c1` [Example 33, 2-(4-(1,4-Diazepan-1-yl)phenyl)-5,7-dimethoxyquinazolin-4(3H)-one], the “FRET activity (<50 uM)” value was “Active”. For `COc1cc(OC)c2c(=O)[nH]c(-c3ccc(N4CCCN(C)CC4)cc3)nc2c1` [Example 34, 5,7-Dimethoxy-2-(4-(4-methyl-1,4-diazepan-1-yl)phenyl)quinazolin-4(3H)-one], the “FRET activity (<50 uM)” value was “Active”. `CCN(C(C)=O)C1CCN(c2ccc(-c3nc4cc(OC)cc(OC)c4c(=O)[nH]3)cc2)CC1` [Example 35, N-(1-(4-(5,7-Dimethoxy-4-oxo-3,4-dihydroquinazolin-2-yl)phenyl)piperidin-4-yl)-N-ethylacetamide] was tested, and the “FRET activity (<50 uM)” value was “Active”. In the case of `COc1cc(OC)c2c(=O)[nH]c(-c3ccc(N4C[C@@H](C)N(C(C)=O)[C@@H](C)C4)cc3)nc2c1` [Example 36, 2-(4-((3R,5S)-4-Acetyl-3,5-dimethylpiperazin-1-yl)phenyl)-5,7-dimethoxyquinazolin-4(3H)-one], the “FRET activity (<50 uM)” value is reported as “Active”.
